For data set [1], the system named is HUVEC. Briefly: (§1) Antiproliferative activity against HUVEC assessed as inhibition of cell growth at 10 uM measured after 24 hrs by EdU incorporation based fluorescence microscopic analysis. The data set is classed as toxicity. Particulars: human, huvec, 24 h, 10 µM.
Data set [2] has as its system HUVEC. The experiment in a line: (§2) Antiproliferative activity against HUVEC assessed as inhibition of cell growth at 20 uM measured after 24 hrs by EdU incorporation based fluorescence microscopic analysis. In kind it is toxicity. The note with it: human, huvec, 24 h, 20 µM.
For data set [3], the system named is HUVEC. Briefly: Antiproliferative activity against HUVEC assessed as inhibition of cell growth at 100 uM measured after 24 hrs by EdU incorporation based fluorescence microscopic analysis. The data set is classed as toxicity. The note with it: human.
The test system of data set [4] is HUVEC. Briefly: Anti-angiogenic activity against HUVEC cells assessed as decrease in ERK phosphorylation level at 20 uM preincubated for 10 mins followed by VEGF addition and measured after 20 mins by western blot analysis. In kind it is functional, cell-based. The note with it: Homo sapiens, time 30.0 min. Background: In western blotting, separated proteins are transferred to a membrane and probed.

In data set [5] the test system is HUVEC. Briefly: Anti-angiogenic activity against HUVEC cells assessed as decrease in ERK phosphorylation level at 20 uM preincubated for 10 mins followed by VEGF addition and measured after 20 mins in presence of Na3VO4 by western blot analysis. The data set is classed as functional, cell-based. Particulars: Homo sapiens, time 30.0 min.
Data set [6] concerns HUVEC. Briefly: Anti-angiogenic activity against HUVEC cells assessed as effect on SRC phosphorylation at 20 uM preincubated for 10 mins followed by VEGF addition and measured after 20 mins by western blot analysis. In kind it is functional, cell-based. The note with it: Homo sapiens, time 30.0 min.
Data set [7] has as its system HL-60(TB). The experiment in a line: Antiproliferative activity against human HL-60(TB) cells assessed as inhibition of cell growth at 10 uM. Set-up: scale not given: the % may be the effect or the level left. In kind it is functional.
For data set [8], the system named is NCI-H522. Briefly: Antiproliferative activity against human NCI-H522 cells assessed as inhibition of cell growth at 10 uM. In kind it is functional. Set-up: scale not given: the % may be the effect or the level left.
Data set [9] relates to CCRF-CEM. Briefly: Antiproliferative activity against human CCRF-CEM cells assessed as inhibition of cell growth at 10 uM. The data set is classed as functional. Set-up: scale not given: the % may be the effect or the level left.
Data set [10] concerns K562. The experiment in a line: Antiproliferative activity against human K-562 cells assessed as inhibition of cell growth at 10 uM. In kind it is functional. Set-up: scale not given: the % may be the effect or the level left.
The subject of data set [11] is RPMI-8226. Briefly: Antiproliferative activity against human RPMI-8226 cells assessed as inhibition of cell growth at 10 uM. The data set is classed as functional. Set-up: scale not given: the % may be the effect or the level left.
Data set [12] has as its system M14. The experiment in a line: Antiproliferative activity against human M14 cells assessed as inhibition of cell growth at 10 uM. The data set is classed as functional. Set-up: scale not given: the % may be the effect or the level left.
Data set [13] in a line: as §1. The data set is classed as toxicity. Particulars: human, HUVEC cells, read-out: Activity.
Data set [14] is described as follows: as §2. In kind it is toxicity. The note with it: human, HUVEC cells, read-out: Activity.
The subject of data set [15] is HUVEC. Briefly: Effect on MAPK1 expression level in HUVEC cells at 100 uM by western blot analysis. The data set is classed as functional, cell-based. The note with it: Homo sapiens.
Data set [16] concerns HUVEC. Briefly: Effect on PP1gamma expression level in HUVEC cells at 1 uM by western blot analysis. The data set is classed as functional, cell-based. The note with it: Homo sapiens.
Data set [17] relates to HCT-116. Briefly: Antiproliferative activity against human HCT-116 cells assessed as inhibition of cell growth at 10 uM. Set-up: scale not given: the % may be the effect or the level left. The data set is classed as functional.
In data set [18] the test system is SK-MEL-2. The experiment in a line: Antiproliferative activity against human SK-MEL-2 cells assessed as inhibition of cell growth at 10 uM. The data set is classed as functional. Set-up: scale not given: the % may be the effect or the level left.
The test system of data set [19] is SK-MEL-5. The experiment in a line: Antiproliferative activity against human SK-MEL-5 cells assessed as inhibition of cell growth at 10 uM. In kind it is functional. Set-up: scale not given: the % may be the effect or the level left.

The source made the active and inactive calls. The rule behind the calls is not given here.

As to `CCCC(O)Cn1ncc(C(=O)OCC)c1NC(=O)Nc1cccc(C(F)(F)F)c1` (configuration not stated), the figures for the Activity entry in data set [1], in [2] and in data set [3] were “Non-Toxic”, “Non-Toxic” and “Toxic”, respectively. In addition, the result in data set [4], in data set [5] and in data set [6] was inactive.

With `CCOC(=O)c1cnn(CC(C)O)c1NC(=O)NCc1ccccc1F` (configuration not stated), the Activity in data set [7] was found to be 44%.

With `CCCC(O)Cn1ncc(C(=O)OCC)c1NC(=O)NCc1ccccc1C(F)(F)F` (configuration not stated), the Activity in data set [8] came out at 59%.

Turning to `CCOC(=O)c1cnn(CC(O)CC)c1NC(=O)NCc1cccc(F)c1` (configuration not stated), the Activity in data set [8] came to 40%.

Consider `CCCC(O)Cn1ncc(C(=O)OCC)c1NC(=O)NCc1cccc(F)c1` (configuration not stated), for which the Activity in data set [7] is listed as 41%; in [8], 42%; in data set [1], “Non-Toxic”; in data set [2], “Non-Toxic”; in data set [3], “Toxic”. In addition, the result in [4] was inactive.

Turning to `CCOC(=O)c1cnn(CC(C)O)c1NC(=O)NCc1ccc(F)cc1` (configuration not stated), in data set [7], the Activity is given as 53%.

In the case of `CCCC(O)Cn1ncc(C(=O)OCC)c1NC(=O)NCc1cccc(C(F)(F)F)c1` (configuration not stated), the Activity in data set [9] is listed as 100%; in [8], 54%; in data set [10], 53%; in [11], 53%; in [12], 42%; in data set [3] it was “Toxic”. The inhibition at 24 h, 10 µM in [13] was determined as 20%. The inhibition at 24 h, 20 µM in data set [14] came out at 30%. The result in [4], in data set [15] and in data set [16] was Active. For the same compound, the result in [5] and in [6] was inactive.

As for `CCOC(=O)c1cnn(CC(C)O)c1NC(=O)NCc1cccc(F)c1` (configuration not stated), the Activity in data set [9] came to 100%.

As for `CCCC(O)Cn1ncc(C(=O)OCC)c1NC(=O)NCc1ccc(F)cc1` (configuration not stated), the Activity in [8] stood at 53%.

In the case of `CCOC(=O)c1cnn(CC(O)CC)c1NC(=O)NCc1ccc(C(F)(F)F)cc1` (configuration not stated), the Activity in data set [8] stood at 40%.

As for `CCCC(O)Cn1ncc(C(=O)OCC)c1NC(=O)NCc1ccccc1F` (configuration not stated), the Activity in data set [8] was determined as 44%.

Consider `CCOC(=O)c1cnn(CC(C)O)c1NC(=O)NCc1ccccc1C(F)(F)F` (configuration not stated), for which, in data set [7], the Activity was 42%.

Consider `CCCC(O)Cn1ncc(C(=O)OCC)c1NC(=O)NCc1ccc(C(F)(F)F)cc1` (configuration not stated), for which the Activity in [7] was determined as 60%; in data set [9] it was 60%; in data set [8] it was 50%; in data set [10], 65%; in data set [11], 74%; in data set [17] it was 59%. The Activity in [18] is recorded as 49%; in data set [19], 59%.
